Test results taken from US10757943B2, “Thidiazuron mixtures and uses thereof” (Valent BioSciences LLC, priority 2017, dated 2020).

Experiments:
Format in all cases: in vivo
Concord grape vines [1] = experiment: Bud break and harvest weight of endo-dormant two-year-old Concord grape vines in the greenhouse (Example 4); settings: thidiazuron ppm and 17-0-0 % as in label, 15-0-0 65,880 ppm; for Fresh Shoot Weight (g)/Plant: new growth at close of study
Excerpt: Two-year-old Concord grape vines were purchased commercially. These vines had just lost their leaves and were shipped shortly after they were dug at the nursery. Thus, the vines had not fulfilled their chilling requirement and were considered endo-dormant. The vines were potted individually into one-gallon pots containing ProMix® BX immediately upon receipt and subsequently pruned back to the five proximal buds on the one-year old wood. Within two hours of pruning, treatment solutions were applied using a foam paint brush to the remaining one-year old wood, including the cut end from pruning. Two treatments, water and hydrogen cyanimide, which acted as negative and positive controls, respectively, were included in all studies.
Treatment solutions were made fresh in water and contained 1% (v/v) non-ionic surfactant. In all cases, two treatment solutions were applied to the plants. Where a single component was used for a treatment, the first application solution was water containing surfactant; in the cases where combination treatments were made to the same plant, the first treatment solution was allowed to dry prior to applying the second.
The treated plants were kept in a conventional greenhouse under supplemental lighting. Greenhouse conditions were 65:60° F. Day:Night temperature with a 16:8 hour photoperiod. Relief from dormancy was assessed every two days during the course of the study. Dormancy was considered relieved upon the emergence of a green bud. Both the number of ‘broken buds’ per plant and the date of relief of plants from dormancy were assessed. At the close of the study, new growth was removed from each of the treated plants and weighed.

Concord grape vines [2] = experiment: Bud break and shoot growth of potted dormant Concord grape vines in the greenhouse (Example 1); settings: for % bud break (vines with at least one bud break): hydrogen cyanamide 10,000 ppm, 17-0-0 197,100 ppm, 15-0-0 239,060 ppm, ACC 1,000 ppm; for % bud break (vines with at least one bud break) / 50% Bud Break to Harvest / Initial to 50% Bud Break / 25% Bud Break (DAT) / 50% Bud Break (DAT): thidiazuron 300 ppm unless label states other; for Dry Weight (g)/25% Bud Break to Harvest (d): combined shoot dry weight at 49 DAT normalised by days from 25% bud break to harvest; for Dry Weight (g)/50% Bud Break to Harvest (d): combined shoot dry weight at 49 DAT normalised by days from 50% bud break to harvest; for Fresh Weight (g)/50% Bud Break to Harvest (d): combined shoot fresh weight at 49 DAT normalised by days from 50% bud break to harvest; for 50% Bud Break to Harvest: harvest at day 49; for Initial to 50% Bud Break: synchrony of bud break; for 25% Bud Break (DAT): time to 25% bud break; for 50% Bud Break (DAT): time to 50% bud break
Excerpt: An aqueous 50% hydrogen cyanamide solution (Sigma-Aldrich, St. Louis, Mo. USA) was used as the source of hydrogen cyanamide. The commercial product, Dormex® contains 50% hydrogen cyanamide (w/v) in water.
Erger® was used as the source of 15-0-0 fertilizer. (Erger is a registered trademark of Valagro S.P.A., Italy and is available from Helena Chemical Company, Collierville, Tenn., USA). Erger® contains 15% total nitrogen as 3.1% ammoniacal nitrogen, 5.8% nitrate nitrogen and 6.1% urea nitrogen and 3.3% calcium derived from ammonium nitrate, calcium nitrate and urea. As used herein, the term “15-0-0 fertilizer” refers to the Erger® formulation above and all formulations described in International PCT application publication WO/2001/037653A2 by Valagro S.P.A., Italy, which is incorporated, herein, in its entirety.
CAN-17 was used as the source of 17-0-0 fertilizer. CAN-17 contains 17% total nitrogen as 4.6% ammonium nitrogen and […] nitrate nitrogen and 1.3% urea nitrogen and 8.8% calcium derived from ammonium nitrate and calcium nitrate. CAN-17 is available from J.R. Simplot Company (Boise, Id., USA).
To assess the ability of mixtures of the invention to promote and synchronize bud break these mixtures were applied to Concord grape vines and examined for bud break (initiation of growth) and subsequent shoot development. Specifically, 1 year old dormant bare rooted Concord grape vines were planted in pots containing Pro-Mix® BX potting soil (Pro-Mix is a registered trademark of and available from Premier Horticulture Ltd.) and pruned to 5 nodes on a single shoot. Aqueous solutions of thidiazuron, hydrogen cyanamide, 15-0-0 fertilizer, 17-0-0 fertilizer and 1-aminocyclopropane-1-carboxylic acid (“ACC”), and mixtures thereof were each applied individually or sequentially or co-applied to the first-year wood of separate Concord grape vines. Plants were grown in the greenhouse for 49 days and evaluated for percent of vines showing bud break, or relief from dormancy, periodically between 7 days and the conclusion of the experiment. […] At 49 days after treatment (DAT), the plants were sacrificed and measured for total number of flower clusters, total new shoot length, longest new shoot, combined new shoot fresh weight and combined new shoot dry weight. New shoot growth is the growth arising from the dormant buds not including the woody growth that was planted and gave rise to the new growth.
Synergy is calculated by the Abbott method: %Cexp=A+B−(AB/100), where % Cexp is the expected efficacy and in which A and B are the speed of bud break or shoot length or shoot weight given by the single active ingredients. If the ratio between the experimentally observed efficacy of the mixture Cobs and the expected efficacy of the mixture is greater than 1, synergistic interactions are present in the mixture” (Gisi, Synergistic Interaction of Fungicides in Mixtures, The American Phytopathological Society, 86:11, 1273-1279,1996).

[3] = system: Red Flame seedless grape vines; experiment: Bud break and shoot length of field-grown Red Flame seedless grape vines (Example 2); settings: for Broken Buds per plant (Average Buds Broken per Spur): 31 days after treatment; for % Broken Buds / Total Shoot Length: 48 days after treatment
Experimental: To assess the ability of mixtures of the invention to promote and synchronize bud break these mixtures were applied to field-grown Red Flame seedless grape vines and examined for bud break (initiation of growth) and subsequent shoot development. Thidiazuron, hydrogen cyanamide, 17-0-0 fertilizer, and mixtures thereof were each applied individually or sequentially (co-applied) to the separate spurs of Red Flame seedless grape vines. Plants were evaluated for bud break at 31 days after treatment, for percent bud break and total new shoot length at 48 days after treatment. Results of these evaluations can be seen below in Tables 4 and 5.

[4] = 49 days post treatment, thidiazuron ppm as in label, other concentrations as in Table 1, listed as Thidiazuron (300)
[5] = 49 days post treatment, thidiazuron ppm as in label, other concentrations as in Table 1, listed as Thidiazuron (1000)
[6] = other concentrations as in Table 1, listed as Thidiazuron (1000)
[7] = other concentrations as in Table 1
[8] = other concentrations as in Table 1, listed as 1,000 ppm thidiazuron
[9] = hydrogen cyanamide 10,000 ppm, thidiazuron 300 ppm, 17-0-0 197,100 ppm

O=C(Nc1ccccc1)Nc1cnns1 [Thidiazuron, 1-Phenyl-3-(1,2,3-thiadiazol-5-yl)urea]
Fresh Shoot Weight (g)/Plant (Concord grape vines [1]; listed as Thidiazuron (100)): 15.53 g
Fresh Shoot Weight (g)/Plant (Concord grape vines [1]; listed as Thidiazuron (300)): 13.15 g
Fresh Shoot Weight (g)/Plant (Concord grape vines [1]; listed as Thidiazuron (1000)): 22.45 g
50% Bud Break (DAT) (Concord grape vines [1]; listed as Thidiazuron (100)): 33 DAT
100% Bud Break (DAT) (Concord grape vines [1]; listed as Thidiazuron (100)): 44 DAT
Initial to 50% Bud Break (Concord grape vines [1]; listed as Thidiazuron (100)): 7
Number of Buds Broken/Plant (Concord grape vines [1]; listed as Thidiazuron (100)): 2
50% Bud Break (DAT) (Concord grape vines [1]; listed as Thidiazuron (300)): 28 DAT
100% Bud Break (DAT) (Concord grape vines [1]; listed as Thidiazuron (300)): 48 DAT
Initial to 50% Bud Break (Concord grape vines [1]; listed as Thidiazuron (300)): 14
Number of Buds Broken/Plant (Concord grape vines [1]; listed as Thidiazuron (300)): 2.125
50% Bud Break (DAT) (Concord grape vines [1]; listed as Thidiazuron (1000)): 21 DAT
100% Bud Break (DAT) (Concord grape vines [1]; listed as Thidiazuron (1000)): 37 DAT
Initial to 50% Bud Break (Concord grape vines [1]; listed as Thidiazuron (1000)): 7
Number of Buds Broken/Plant (Concord grape vines [1]; listed as Thidiazuron (1000)): 4.5
% bud break (vines with at least one bud break) (Concord grape vines [2]; 7 DAT): 0%
% bud break (vines with at least one bud break) (Concord grape vines [2]; 10 DAT): 0.0%
% bud break (vines with at least one bud break) (Concord grape vines [2]; 10 DAT, listed as Thidiazuron (1,000)): 44.4%
% bud break (vines with at least one bud break) (Concord grape vines [2]; 13 DAT): 0.0%
% bud break (vines with at least one bud break) (Concord grape vines [2]; 13 DAT, listed as Thidiazuron (1,000)): 77.8%
% bud break (vines with at least one bud break) (Concord grape vines [2]; 15 DAT): 0.0%
% bud break (vines with at least one bud break) (Concord grape vines [2]; 15 DAT, listed as Thidiazuron (1,000)): 88.9%
% bud break (vines with at least one bud break) (Concord grape vines [2]; 17 DAT): 11.1%
% bud break (vines with at least one bud break) (Concord grape vines [2]; 17 DAT, listed as Thidiazuron (1,000)): 88.9%
% bud break (vines with at least one bud break) (Concord grape vines [2]; 20 DAT): 11.1%
% bud break (vines with at least one bud break) (Concord grape vines [2]; 20 DAT, listed as Thidiazuron (1,000)): 100.0%
% bud break (vines with at least one bud break) (Concord grape vines [2]; 22 DAT): 22.2%
% bud break (vines with at least one bud break) (Concord grape vines [2]; 22 DAT, listed as Thidiazuron (1,000)): 100.0%
% bud break (vines with at least one bud break) (Concord grape vines [2]; 24 DAT): 33.3%
% bud break (vines with at least one bud break) (Concord grape vines [2]; 24 DAT, listed as Thidiazuron (1,000)): 100.0%
% bud break (vines with at least one bud break) (Concord grape vines [2]; 27 DAT): 33.3%
% bud break (vines with at least one bud break) (Concord grape vines [2]; 27 DAT, listed as Thidiazuron (1,000 ppm)): 100.0%
% bud break (vines with at least one bud break) (Concord grape vines [2]; 29 DAT): 33.3%
% bud break (vines with at least one bud break) (Concord grape vines [2]; 29 DAT, listed as Thidiazuron (1,000 ppm)): 100.0%
% bud break (vines with at least one bud break) (Concord grape vines [2]; 31 DAT): 33.3%
% bud break (vines with at least one bud break) (Concord grape vines [2]; 31 DAT, listed as Thidiazuron (1,000 ppm)): 100.0%
% bud break (vines with at least one bud break) (Concord grape vines [2]; 34 DAT): 33.3%
% bud break (vines with at least one bud break) (Concord grape vines [2]; 34 DAT, listed as Thidiazuron (1,000 ppm)): 100.0%
% bud break (vines with at least one bud break) (Concord grape vines [2]; 36 DAT): 44.4%
% bud break (vines with at least one bud break) (Concord grape vines [2]; 36 DAT, listed as Thidiazuron (1,000 ppm)): 100.0%
% bud break (vines with at least one bud break) (Concord grape vines [2]; 38 DAT): 55.6%
% bud break (vines with at least one bud break) (Concord grape vines [2]; 38 DAT, listed as Thidiazuron (1,000 ppm)): 100.0%
% bud break (vines with at least one bud break) (Concord grape vines [2]; 41 DAT): 55.6%
% bud break (vines with at least one bud break) (Concord grape vines [2]; 41 DAT, listed as Thidiazuron (1,000 ppm)): 100.0%
% bud break (vines with at least one bud break) (Concord grape vines [2]; 43 DAT): 66.7%
% bud break (vines with at least one bud break) (Concord grape vines [2]; 43 DAT, listed as Thidiazuron (1,000 ppm)): 100.0%
% bud break (vines with at least one bud break) (Concord grape vines [2]; 49 DAT): 77.8%
% bud break (vines with at least one bud break) (Concord grape vines [2]; 49 DAT, listed as Thidiazuron (1,000 ppm)): 100.0%
Total # of Flower Clusters (Concord grape vines [2]; 49 days post treatment, thidiazuron ppm as in label, other concentrations as in Table 1): 0.1
Combined Shoot Dry Weight (Concord grape vines [2]; [4]): 1.5 g
Combined Shoot Fresh Weight (Concord grape vines [2]; [4]): 8.2 g
Longest Shoot Length (Concord grape vines [2]; [4]): 20.1 cm
Total Shoot Length (Concord grape vines [2]; [4]): 28.3 cm
Combined Shoot Dry Weight (Concord grape vines [2]; [5]): 6.9 g
Combined Shoot Fresh Weight (Concord grape vines [2]; [5]): 31.8 g
Longest Shoot Length (Concord grape vines [2]; [5]): 68.3 cm
Total Shoot Length (Concord grape vines [2]; [5]): 88.8 cm
Dry Weight (g)/25% Bud Break to Harvest (d) (Concord grape vines [2]; listed as Thidiazuron (300)): 0.06 g/day
Dry Weight (g)/25% Bud Break to Harvest (d) (Concord grape vines [2]; listed as Thidiazuron (1000)): 0.17 g/day
Dry Weight (g)/50% Bud Break to Harvest (d) (Concord grape vines [2]; listed as Thidiazuron (300)): 0.13 g/day
Dry Weight (g)/50% Bud Break to Harvest (d) (Concord grape vines [2]; listed as Thidiazuron (1000)): 0.18 g/day
Fresh Weight (g)/50% Bud Break to Harvest (d) (Concord grape vines [2]; listed as Thidiazuron (300)): 0.68 g/day
Fresh Weight (g)/50% Bud Break to Harvest (d) (Concord grape vines [2]; listed as Thidiazuron (1000)): 0.84 g/day
50% Bud Break to Harvest (Concord grape vines [2]; other concentrations as in Table 1, listed as Thidiazuron (300)): 12 days
50% Bud Break to Harvest (Concord grape vines [2]; [6]): 38 days
50% Bud Break to Harvest (Concord grape vines [2]; other concentrations as in Table 1, listed as thidiazuron): 12 days
Initial to 50% Bud Break (Concord grape vines [2]; [7]): 21 days
Initial to 50% Bud Break (Concord grape vines [2]; [8]): 3 days
Initial to 50% Bud Break (Concord grape vines [2]; [6]): 3 days
25% Bud Break (DAT) (Concord grape vines [2]; [7]): 23 DAT
25% Bud Break (DAT) (Concord grape vines [2]; [6]): 9 DAT
50% Bud Break (DAT) (Concord grape vines [2]; [7]): 37 DAT
50% Bud Break (DAT) (Concord grape vines [2]; [8]): 11 DAT
50% Bud Break (DAT) (Concord grape vines [2]; [6]): 11 DAT
Broken Buds per plant (Average Buds Broken per Spur) [3, 9]: 0.1
Broken Buds per plant (Average Buds Broken per Spur) ([3]; thidiazuron 1,000 ppm): 0.4
% Broken Buds [3, 9]: 80%
Total Shoot Length [3, 9]: 15.38
% Broken Buds ([3]; thidiazuron 1,000 ppm): 78.1%
Total Shoot Length ([3]; thidiazuron 1,000 ppm): 24.3
